Assay in all cases: ITC
On the technique in general: Isothermal titration calorimetry measures the heat released or taken up as one component is titrated into another.

One assay concerns the target T1, smVicK (196-450) (Streptococcus mutans, UniProt Q8DT64).
T1 construct: gene covS; DHp + CA domains, residues 196-450, pET-His vector, expressed in E. coli and purified as lpWalK
In kind it is binding.

The target of the next assay is T2, lpWalK (370-624).
T2 construct: gene walK; catalytic region DHp + CA domains, residues 370-624, N-terminal His tag, pET-His, E. coli BL21(DE3); DHp homodimer
It is filed as binding, Lactiplantibacillus plantarum. The settings on record: 20 mM Tris-HCl pH 8.0, 5 mM MgCl2, 25 °C, fixed 1:1 model.

A further assay addresses T3, smVicK CA (271-450) (Streptococcus mutans, UniProt Q8DT64).
T3 construct: gene covS
In kind it is binding.

We go through three molecules from paper PMC5633905, “Conformational dynamics of the essential sensor histidine kinase WalK” (Acta Crystallographica. Section D, Structural Biology, 2017).

T1 sequence (Q8DT64 entry or part of it): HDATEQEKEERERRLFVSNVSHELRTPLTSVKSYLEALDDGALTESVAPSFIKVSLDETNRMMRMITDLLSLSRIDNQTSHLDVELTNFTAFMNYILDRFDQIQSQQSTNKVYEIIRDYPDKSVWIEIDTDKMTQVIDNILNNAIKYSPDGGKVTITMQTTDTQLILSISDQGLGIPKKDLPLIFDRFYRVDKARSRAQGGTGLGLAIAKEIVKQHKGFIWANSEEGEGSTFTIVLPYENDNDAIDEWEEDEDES
T3 sequence (Q8DT64 entry or part of it): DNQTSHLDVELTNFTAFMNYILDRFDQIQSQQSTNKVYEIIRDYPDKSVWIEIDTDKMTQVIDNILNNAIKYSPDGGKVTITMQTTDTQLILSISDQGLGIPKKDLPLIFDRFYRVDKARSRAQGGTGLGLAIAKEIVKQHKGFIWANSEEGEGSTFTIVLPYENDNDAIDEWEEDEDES

As for `Nc1ncnc2c1ncn2[C@@H]1O[C@H](COP(=O)(O)OP(=O)(O)NP(=O)(O)O)[C@@H](O)[C@H]1O` [AMPPNP], the dissociation constant Kd at smVicK (196-450) amounted to 538 ± 32 µM; on lpWalK (370-624) (gamma-phosphate not defined in the crystal), 450 ± 6.36 µM; on smVicK CA (271-450), 292 ± 15.2 µM.

As to `Nc1ncnc2c1ncn2[C@@H]1O[C@H](COP(=O)(O)O)[C@@H](O)[C@H]1O` [AMP], binding at lpWalK (370-624) was put at a Kd of 1280 ± 95.5 µM.

Regarding `Nc1ncnc2c1ncn2[C@@H]1O[C@H](COP(=O)(O)OP(=O)(O)O)[C@@H](O)[C@H]1O` [ADP], the Kd at smVicK (196-450) is 701 ± 165 µM; on lpWalK (370-624), 1200 ± 17 µM; at smVicK CA (271-450), 474 ± 97.5 µM.

For orientation: Kd means the free concentration of one partner at which half of the binding sites on the other are occupied at equilibrium, for simple one-to-one binding.
